Test results as given in patent US20230172984A1, “CLEARANCE OF SENESCENT CELLS BY ACTIVATION OF iNKT CELLS” (THE REGENTS OF THE UNIVERSITY OF CALIFORNIA, priority 2020, published 2023).

Experiments:
[1] = system: senescent CD45^− lung cells; assay: Bleomycin-induced lung injury model, C12FDG assay on lung cells; assay type: in vivo, mouse
Protocol: MATERIALS AND METHODS. Mouse husbandry. All procedures involving mice were performed according to the IACUC standards following ethics approval by the animal committee at the University of California, San Francisco. Male C57BL6/J on chow or HFD fed mice. HFD mice were fed a high-fat diet (60% kcal from fat) from 6 weeks until 22 weeks of age. All experiments on HFD mice were performed at 22-24 weeks total age (16-18 weeks on HFD). Age-matched male C57BL6/J mice on standard rodent chow diet were used as controls. For the lung injury model, 10-week-old male C57BL/6J mice were used. The animals were divided into three groups: the control group, the injured group, and the α-GalCer treated group. The animals in the control group received vehicle only (i.p.) on day 10. […] RBCs in cell pellet were lysed by resuspending in 1 mL lysis buffer for 3 min and was neutralized using 10 mL of sterile DMEM medium, centrifuged and the cell pellet resuspended in 1 ml of sterile DMEM containing DNase I. Viability of the cells was analyzed using Vi-Cell XR cell viability analyzer. C12FDG flow cytometry assay. eWAT SVF cells isolated and counted as described above were adjusted to 3×10^6 cells/ml in complete culture media and incubated with 33 μM C12FDG for 1 hr in a 37° C. water bath. […] Samples were analyzed on an Attune acoustic focusing cytometer. […] Data were analyzed with FlowJo (v. 10). […]

[2] = Bleomycin lung injury, hydroxyproline assay (whole lung collagen content); assay type: in vivo, mouse; conditions: bleomycin 3 U/kg, α-GalCer or vehicle at day 10; FIG. 4D
Protocol: MATERIALS AND METHODS. Mouse husbandry. All procedures involving mice were performed according to the IACUC standards following ethics approval by the animal committee at the University of California, San Francisco. Male C57BL6/J on chow or HFD fed mice. HFD mice were fed a high-fat diet (60% kcal from fat) from 6 weeks until 22 weeks of age. All experiments on HFD mice were performed at 22-24 weeks total age (16-18 weeks on HFD). Age-matched male C57BL6/J mice on standard rodent chow diet were used as controls. For the lung injury model, 10-week-old male C57BL/6J mice were used. The animals were divided into three groups: the control group, the injured group, and the α-GalCer treated group. The animals in the control group received vehicle only (i.p.) on day 10. The injured group animals received bleomycin (3 U/kg) via the intratracheal route at the start of the experiment (day 0). The animals in the α-GalCer treated groups received bleomycin (3 U/kg) on day 0, and i.p. injection of α-GalCer (2 μg/mouse) on day 10. The animals in all the groups were sacrificed on day 14, and lungs were harvested for isolation of primary pulmonary Alveolar Type II cells (ATII) on the same day. For the hydroxyproline assay, mice were euthanized 21 days after injury. Bleomycin lung injury. […] Absorbance was measured at 550 nm and the values were computed from the standard curve.

[3] = Bleomycin lung injury survival study; assay type: in vivo, mouse; conditions: bleomycin 4 U/kg intratracheal, α-GalCer or vehicle at day 5, vs vehicle-injected mice; FIG. 4E
Text: Bleomycin lung injury. For measurement of lung collagen, 3 U/kg Bleomycin was instilled intratracheally, with injection of α-GalCer or vehicle at day 10, followed by lung harvest for hydroxyproline assay at 20 days. For the survival study, 4 U/kg Bleomycin was instilled intratracheally, with injection of α-GalCer or vehicle at day 5.

[4] = pre-clinical and clinical studies, Wolf et al., 2018; cited from earlier work

In the case of `CCCCCCCCCCCCCCCCCCCCCCCCCC(=O)N[C@@H](CO[C@H]1O[C@H](CO)[C@H](O)[C@H](O)[C@H]1O)[C@H](O)[C@H](O)CCCCCCCCCCCCCC` [GalCer, alpha-Galactosylceramide], the “number of CD45^− C12FDG^+ lung cells” value ([1]; bleomycin 3 U/kg day 0, α-GalCer 2 μg/mouse i.p. day 10, lungs harvested day 14, FIG. 4A) is reported as “decreased the number of such CD45^− C12FDG^+ lung cells to levels on par with those in the lungs of uninjured control mice”, the “epithelial and mesenchymal senescent cells in lung” value ([1]; bleomycin-injured mice treated with GalCer) is reported as “both epithelial and mesenchymal senescent cells were affected” and the “lung hydroxyproline content (fibrosis)” value [2] is reported as “significantly reduced lung hydroxyproline content”. The “mortality (Kaplan Meier survival)” value [3] was “significantly reduced” and the “tolerability / side effects” value [4] was “generally been well-tolerated over a wide range of doses with minimal side effects”.
